Experimental findings from patent US5326774A, “Pharmaceutical preparation of antihypertensive, antianginal, antiarrhythmic and antiglaucomic action” (priority 1992, dated 1994) are described below.

“And” between values parts separate entries of the source, which are not always exact repeats. Equal entries are not always repeated. Where two headings read alike, the source gives them in different places.

Series [1] deals with T1, β1-adrenoceptor (Rattus norvegicus, UniProt P18090).
T1 construct: positive chronotropic and depressor effects in the anesthetized rats; from tissue; host or cells: whole living rat (heart rate response to isadrin); endogenous receptor
In words: Inhibition of isadrin's positive chronotropic effect, i.v., anesthetized rats. The settings on record: rat, iv, read-out: Dosage inhibiting isadrin's positive chronotropism by 50% (ED50). Format: in vivo.

Series [2] deals with T2, β2-adrenoceptor (Rattus norvegicus, UniProt P10608).
T2 construct: positive chronotropic and depressor effects in the anesthetized rats; from tissue; host or cells: whole living rat (blood pressure response to isadrin); endogenous receptor
The series is described as follows: Inhibition of isadrin's depressor effect, i.v., anesthetized rats. It is filed as in vivo. The settings on record: rat, iv, read-out: Dosage inhibiting isadrin's depressor effect by 50%, ED50.

Series [3] deals with mesaton-initiated pressor effect. The series is described as follows: Mesaton-initiated pressor effect in anesthetized rats. Format: in vivo, rat. The conditions noted are these: for effect on mesaton pressor effect: 3 mg/kg i.v.; for suppression of mesaton pressor effect: 10 mg/kg i.v., average.
Series [4] concerns arterial pressure. The series is described as follows: Hypotensive activity in anesthetized cats, i.v. It is filed as in vivo, cat.
In series [5] the test system is electrically induced ventricular fibrillation. The series is described as follows: Threshold of electrically induced ventricular fibrillation in anesthetized cats. Format: in vivo, cat.
The subject of series [6] is strophantin-induced arrhythmia. Format: in vivo, guinea pig.
The test system of series [7] is coronary vessels. The series is described as follows: Coronary vessel dilatation and myocardial perfusion in anesthetized rats. The settings on record: 0.1 mg/kg i.v. (compound of the invention). Format: in vivo, rat. The text has this: The coronarodilative effect of the compound according to the invention is not associated with its β- and α-adrenoceptor blocking activity and its influence on the systemic perfusion pressure and pump function of the heart. […]

In series [8] the test system is vascular regions. The series is described as follows: Labeled microsphere method: cardiac output distribution in normotensive rats. Format: in vivo, rat.
Series [9] deals with vascular regions. In words: Labeled microsphere method in rats with renovascular hypertension. Format: in vivo, rat.
Series [10] is described as follows: in vivo. The settings on record: mouse, iv.
From the text: LD50 values were estimated by using the Litchfield-Wilckoxon method.
Series [11] has as its system arterial pressure. In words: Arterial pressure and heart rate in conscious normotensive rats, oral. Format: in vivo, rat. The settings on record: 150 mg/kg.
The test system of series [12] is arterial pressure. In words: Antihypertensive effect in rats with renovascular hypertension. Format: in vivo, rat. The conditions noted are these: same conditions. How it is done: . In rats suffering from renovascular hypertension the compound of the invention in the dosage of 10 mg/kg (injected intramuscularly) lowered with confidence the arterial pressure (from 137±3 to 117±5 mm of Hg column) 30 minutes after being administered. The 2-week course of the administration of the compound according to the invention (10 mg/kg 1 time a day) caused the antihypertensive effect to be enhanced. By the end of the second week the arterial pressure was 110±8.6 mm Hg. […]

Series [13] deals with ventricular fibrillation. The series is described as follows: Ventricular fibrillation during acute coronary occlusion and reperfusion in anesthetized dogs. Format: in vivo, dog. The settings on record: for Ventricular fibrillation during acute occlusion and reperfusion: single animals.
In series [14] the test system is intraocular tension of intact rabbit eyes. The settings on record: 1% solution.
Method: The effects of the compound according to the invention on intraocular tension and hydrodynamics of the eye was tested in 28 chinchilla rabbits with body weight of 2.5-3.5 kg.
The left animal eyes were control wherein using the same procedure a diluent was instilled.
Series [15] concerns intraocular tension. The series is described as follows: Clinical test in 108 patients with glaucoma resistant to conventional therapy. The conditions noted are these: human, in vivo. How it is done: The preparation of the invention was tested on 108 patients with different cases of glaucoma resistant to the conventional antiglaucomic therapy. […] A long-term resetting for more than 1 month of intraocular tension was attained in 76% of patients.

[16] abbreviates: β-adrenoceptor blocking doses, normotensive rats.

T2 sequence (P10608 whole entry): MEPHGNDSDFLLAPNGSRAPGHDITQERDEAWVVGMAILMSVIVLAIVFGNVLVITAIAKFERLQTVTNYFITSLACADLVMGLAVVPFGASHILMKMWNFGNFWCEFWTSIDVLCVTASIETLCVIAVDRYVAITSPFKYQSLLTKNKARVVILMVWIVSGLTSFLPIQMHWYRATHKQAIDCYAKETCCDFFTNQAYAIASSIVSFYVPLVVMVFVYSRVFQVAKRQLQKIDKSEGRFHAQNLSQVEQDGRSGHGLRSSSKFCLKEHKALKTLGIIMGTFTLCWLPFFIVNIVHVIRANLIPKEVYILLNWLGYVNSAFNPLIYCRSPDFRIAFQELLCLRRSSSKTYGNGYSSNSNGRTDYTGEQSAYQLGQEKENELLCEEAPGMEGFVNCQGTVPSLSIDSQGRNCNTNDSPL
T1 sequence (P18090 whole entry): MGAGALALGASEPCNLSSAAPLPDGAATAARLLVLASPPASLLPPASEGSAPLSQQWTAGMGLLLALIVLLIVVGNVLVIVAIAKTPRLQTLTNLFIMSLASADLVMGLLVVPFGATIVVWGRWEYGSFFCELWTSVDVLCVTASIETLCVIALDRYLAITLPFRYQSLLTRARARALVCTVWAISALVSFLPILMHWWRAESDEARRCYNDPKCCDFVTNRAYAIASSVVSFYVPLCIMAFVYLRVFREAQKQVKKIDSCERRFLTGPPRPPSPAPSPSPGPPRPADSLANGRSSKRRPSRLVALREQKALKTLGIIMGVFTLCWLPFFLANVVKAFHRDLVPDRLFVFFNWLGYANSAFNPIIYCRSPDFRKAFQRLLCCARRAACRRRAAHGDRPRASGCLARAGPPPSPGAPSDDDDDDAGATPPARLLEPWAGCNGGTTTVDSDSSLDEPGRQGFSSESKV

What is called ED50 is the midpoint of the dose-response relation. On to `CC(CCc1ccccc1)NCC(O)c1ccc(O)c(C(N)=O)c1` (stereo not shown) [Labetalol, labetalol], for which the 50% effective dose (ED50) in series [1] was 0.7 ± 0.05 mg/kg. Also, in [2], the ED50 came to 3.3 ± 0.2 mg/kg. In series [3], the “effect on mesaton pressor effect” value is “did not change” and the “suppression of mesaton pressor effect” value is 47%. The ED20 in series [4] (Felis catus, iv, anesthetized cats, read-out: Dose resulting in lowering of arterial pressure by 20%, ED20) was determined as 1 ± 0.09 mg/kg. In addition, in series [4] (Felis catus, iv, cats, read-out: dosage from which arterial pressure lowered), the minimal effective dose came out at 0.1 mg/kg. Moreover, the “hypotensive effect compared with compound of the invention” value in [4] (from 0.1 mg/kg) is “less pronounced and prolonged effect”. In series [5] (1 mg/kg), the “threshold of electrically induced ventricular fibrillation” value is listed as “did not change”. Further, in series [5] (5 mg/kg), the “threshold of electrically induced ventricular fibrillation” value is “increased considerably this threshold”; the “value of increasing threshold compared with propranolol and oxprenolol” value is reported as “higher”. Besides, in series [6] (0.3 mg/kg i.v.), the “Arrhythmogenic dose of strophantin as compared with control: extrasystoles” value is 101% and the “Dose of strophantin as compared with control: ventricular fibrillation” value is given as 113%. Moreover, in [6] (1.0 mg/kg i.v.), the “Arrhythmogenic dose of strophantin as compared with control: extrasystoles” value was 127%, the “Dose of strophantin as compared with control: ventricular fibrillation” value is listed as 131% and the “Lethal dose of strophantin as compared with control: animal death” value was determined as 128%. Moreover, in series [6] (3.0 mg/kg i.v.), the “Arrhythmogenic dose of strophantin as compared with control: extrasystoles” value is reported as 136%, the “Dose of strophantin as compared with control: ventricular fibrillation” value amounted to 137% and the “Lethal dose of strophantin as compared with control: animal death” value was found to be 132%. Further, the “coronary vessel dilatation / myocardial perfusion” value in [7] was “did not lead to the dilatation of coronary vessels”. Besides, the “nature of vasodilating effect” value in [8] (dosages to block α-adrenoceptors) is “slight change of vasodilating nature”. For the same molecule, in series [8] (setting [16]), the most sensible vessels entry is “the vessels of skeletal muscles, testicles, spleen, kidneys and adrenals”; the vasodilating properties entry is listed as “exhibits vasodilating properties”. Moreover, the vasodilating properties entry in [9] is listed as “shows vasodilating properties”.

For the molecule `C=CCOc1ccccc1OCC(O)CNC(C)C` (stereo not shown) [Oxprenolol, oxprenolol], the ED50 in series [1] amounted to 0.26 ± 0.025 mg/kg. In [2], the 50% effective dose (ED50) was 0.055 ± 0.005 mg/kg. Further, in [3], the “effect on mesaton pressor effect” value is reported as “did not change” and the “suppression of mesaton pressor effect” value is 10%. Moreover, the “threshold of electrically induced ventricular fibrillation” value in series [5] (1 mg/kg) is given as “did not change”. Also, the “threshold of electrically induced ventricular fibrillation” value in [5] (5 mg/kg) is reported as “increased considerably this threshold”. Moreover, in series [6] (guinea pig, in vivo), the “Arrhythmogenic dose of strophantin as compared with control: extrasystoles” value was 105% and 120% and 110%; the “Dose of strophantin as compared with control: ventricular fibrillation” value is 101% and 110% and 121%; the “Lethal dose of strophantin as compared with control: animal death” value is 102% and 112%.

By LD50 is commonly meant the dose expected to kill half of the subjects tested. A lower LD50 goes with greater toxicity. For the molecule `CC(C)NCC(O)COc1cccc2[nH]ccc12` (stereo not shown) [Pindolol, pindolol, reference compound], the figures for the median effective dose (ED50) in series [1] and in series [2] were 0.025 ± 0.002 mg/kg and 0.02 ± 0.002 mg/kg, respectively. Further, the “threshold of electrically induced ventricular fibrillation” value in [5] (dosages tested) is “no effect”. The same molecule had a 50% lethal dose (LD50) at 72 h in series [10] of 29 mg/kg.

Regarding `CC(C)NCC(O)COc1cccc2ccccc12` (stereo not shown) [Propranolol, propranolol], in [11], the arterial pressure entry is recorded as “small influence on arterial pressure” and the heart rate entry is given as “decreased the heart rate slightly”. The antihypertensive efficacy result in [12] is on record as “low efficacy”. Also, in series [5] (5 mg/kg), the “threshold of electrically induced ventricular fibrillation” value is given as “increased considerably this threshold”. In series [6] (guinea pig, in vivo), the “Arrhythmogenic dose of strophantin as compared with control: extrasystoles” value was 92.7% and 110%; the “Dose of strophantin as compared with control: ventricular fibrillation” value was 97.9% and 106.3% and 120%. Further, the “prevention of ventricular fibrillation in temporary coronary occlusion” value in series [13] (1 mg/kg i.v.) is “the same effect”. Besides, in series [13] (10 min after injection), the “Ventricular fibrillation during acute occlusion and reperfusion” value is recorded as “R”. For the same molecule, in series [13] (60 min after injection), the “Ventricular fibrillation during acute occlusion and reperfusion” value is given as “R”. The “coronary vessel dilatation / myocardial perfusion” value in series [7] is “unfavourable effect on transmural, myocardial perfusion”. In addition, the “Average decrease of intraocular tension OD, M ± m” value in series [14] (2 hours) was 2.6 ± 0.3 ram of Hg column. In addition, the “Average decrease of intraocular tension OD, M ± m” value in [14] (4 hours) is on record as 2.2 ± 0.2 ram of Hg column.

As for `CC(C)(C)NC[C@H](O)COc1nsnc1N1CCOCC1` [thymolol], in [15], the “mechanism of ocular hypotensive effect” value is given as “associated not only with inhibition of intraocular liquid secretion, but with improvement of its outflow”.
